Measurements reported in US20220339248A1, “METHODS FOR TREATING NEOINTIMAL HYPERLASIA USING F11R/JAM-A INHIBITORS” (THE RESEARCH FOUNDATION FOR THE STATE UNIVERSITY OF NEW YORK, priority 2019, published 2022).
Entries after “also recorded” stand apart in the source; their conditions may differ. Non-standard residues stand in square brackets, D forms with d.

Tests used:
F11R = molecular target: T1, F11R (Homo sapiens, UniProt Q9Y624); settings: statement in words; activity described in Babinska et al. and U.S. Pat. Nos. 9,556,235 and 8,557,957; cited from earlier work
T1 sequence (Q9Y624 28-299): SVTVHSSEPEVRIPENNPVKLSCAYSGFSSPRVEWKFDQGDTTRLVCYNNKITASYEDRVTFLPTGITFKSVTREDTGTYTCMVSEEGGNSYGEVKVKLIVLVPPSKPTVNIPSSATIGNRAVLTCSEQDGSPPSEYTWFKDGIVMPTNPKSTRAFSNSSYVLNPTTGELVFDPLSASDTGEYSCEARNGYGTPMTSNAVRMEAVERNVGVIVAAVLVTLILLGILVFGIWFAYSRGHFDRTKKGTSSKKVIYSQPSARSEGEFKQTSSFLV

uremic C57BL/6 mice = assay: Carotid artery partial ligation (focal LCA stenosis) model of neointimal hyperplasia in 5/6 nephrectomized uremic mice; assay type: in vivo, mouse; settings: for mean Intima Index (intima area/intima+media area) from 1 LCA location with biggest focal stenosis: FIG. 7, control 0.47±0.15, U-Mann Whitney p=0.039
Experimental: Carotid artery ligation was performed on 14 uremic C57BL/6 mice that underwent 5/6 nephrectomy. One week after nephrectomy, partial ligation of the left carotid artery (LCA) was performed on each mouse. Focal LCA stenosis was created by placing 9-0 nylon suture at 1 mm proximal to the carotid bifurcation (mid-focal stenosis) around the artery using a 35-gauge blunt needle (World precision Instruments, Inc., Sarasota, Fla.). Then the needle mandrel was gently removed to restore blood flow.
Mice were fed a regular mouse diet and divided into 2 groups of 7 mice each; the experimental group received Peptide 4D while the Control group received saline injections by intraperitoneal route for 21 days, as this was the time shown in earlier studies to correlate with development of neointimal hyperplasia following partial ligation of the carotid artery.
The mice were then euthanized on day 21 and both LCA and right carotid artery (RCA) were excised for analysis. Specimens were embedded in paraffin. Serial sections (6 μm thick) were collected at 200-μm intervals of the LCA from mid-focal stenosis as well as from the RCA serving as lesion control. Data were analyzed qualitatively and quantitatively using Image J software. The two groups were compared for differences in mean Intima Area and Intima Index, defined as the ratio of intima area divided by intima plus media area.

## SVTVHSSEPEVRIPENNPVKLSC (SVTVHSSEPEVXIPENNPVKLSC; Laboratory synthesized sequence; (12)..(12) Xaa can be any naturally occurring amino acid) [SEQ ID NO: 11, 23-amino acid N-terminal peptide of F11R/JAM-A]
F11R
  inhibition of the biological activities of F11R: inhibitor of the biological activities of F11R

## KSVTREDTGTYTC (Laboratory synthesized sequence) [SEQ ID NO: 2]
F11R
  inhibition of the biological activities of F11R: inhibitor of the biological activities of F11R

## SSEPEVRIPENNPV (Laboratory synthesized sequence) [SEQ ID NO: 16]
F11R
  inhibition of the biological activities of F11R: inhibitor of the biological activities of F11R

## NH2-(dK)-SVT-(dR)-EDTGTYTC-CONH2 (H-[dK]SVT[dR]EDTGTYTC-NH2; SMILES CC(C)[C@H](NC(=O)[C@H](CO)NC(=O)[C@H](N)CCCCN)C(=O)N[C@H](C(=O)N[C@H](CCCNC(=N)N)C(=O)N[C@@H](CCC(=O)O)C(=O)N[C@@H](CC(=O)O)C(=O)N[C@H](C(=O)NCC(=O)N[C@H](C(=O)N[C@@H](Cc1ccc(O)cc1)C(=O)N[C@H](C(=O)N[C@@H](CS)C(N)=O)[C@@H](C)O)[C@@H](C)O)[C@@H](C)O)[C@@H](C)O) [Peptide 4D]
Uremic C57BL/6 mice; FIG. 6, 21 days, n=7, control 0.27±0.13, U-Mann Whitney p=0.0079
  mean Intima Index (intima area/intima+media area) from 10 LCA locations: significantly less
Uremic C57BL/6 mice; 21 days, n=7
  mean Intima Index (intima area/intima+media area) from 1 LCA location with biggest focal stenosis: significantly less
Uremic C57BL/6 mice; 21 days, n=7, listed as peptide 4D
  mean Intima Index (intima area/intima+media area) from 1 LCA location with biggest focal stenosis: 0.31±0.14
Uremic C57BL/6 mice; FIGS. 3A-3B, 4, LCA, 21 days, versus saline control, n=7
  intima area relative to distance from the ligation point (mid focal stenosis morphometry): significantly smaller; also recorded: significantly decreased intima area
Uremic C57BL/6 mice; carotid ligation model, 21 days, versus saline control
  effect on neointimal hyperplasia: significantly inhibits neointimal hyperplasia
Uremic C57BL/6 mice; of 7 experimental mice, all control LCA severe, two with complete luminal occlusion
  number of mice whose LCA had severe neointimal hyperplasia: one
